Experimental data published in patent publication US20150158862A1, “1,3-DIHYDRO-2H-BENZIMIDAZOL-2-ONE DERIVATIVES SUBSTITUTED WITH HETEROCYCLES AS RESPIRATORY SYNCYTIAL VIRUS ANTIVIRAL AGENTS” (Janssen R&D Ireland, priority 2012, published 2015).

What was measured:
rgRSV224 virus = test: Antiviral activity: inhibition of GFP expression of rgRSV224 virus in HeLa cells; assay type: cell-based, respiratory syncytial virus (RSV); settings: human respiratory syncytial virus, 72 h, read-out: WT activity EC50
Procedure: (§1) Black 96-well clear-bottom microtiter plates (Corning, Amsterdam, The Netherlands) were filled in duplicate using a customized robot system with serial 4-fold dilutions of compound in a final volume of 50 μl culture medium [RPMI medium without phenol red, 10% FBS, 0.04% gentamycin (50 mg/ml) and 0.5% DMSO]. Then, 100 μl of a HeLa cell suspension (5×10^4 cells/ml) in culture medium was added to each well followed by the addition of 50 μl rgRSV224 (MOI=0.02) virus in culture medium using a multidrop dispenser (Thermo Scientific, Erembodegem, Belgium). rgRSV224 virus is an engineered virus that includes an additional GFP gene (Hallak et al, 2000) and was in-licensed from the NIH (Bethesda, Md., USA). Medium, virus- and mock-infected controls were included in each test. Cells were incubated at 37° C. in a 5% CO2 atmosphere. Three days post-virus exposure, viral replication was quantified by measuring GFP expression in the cells by a MSM laser microscope (Tibotec, Beerse, Belgium). The EC50 was defined as the 50% inhibitory concentration for GFP expression. In parallel, compounds were incubated for three days in a set of white 96-well microtitier plates (Corning) and the cytotoxicity of compounds in HeLa cells was determined by measuring the ATP content of the cells using the ATPlite kit (PerkinElmer, Zaventem, Belgium) according to the manufacturer's instructions. The CC50 was defined as the 50% concentration for cytotoxicity.

in vitro = assay type: cell-based; settings: human
Procedure: as §1

CS(=O)(=O)CCCn1c(Cn2c(=O)n(CC(F)(F)F)c3c(Cl)cccc32)cc2cc(Cl)ccc21 [Compound P1, 4-chloro-1-((5-chloro-1-(3-(methylsulfonyl)-propyl)-1H-indol-2-yl)methyl)-3-(2,2,2-trifluoroethyl)-1H-benzo[d]imidazo-2(3H)-one]
EC50 (rgRSV224 virus): 398 nM
CC50 at 3 days (in vitro): > 100000 nM

O=c1n(Cc2cc3cc(Cl)ccc3n2CCCC(F)(F)F)c2cncc(Cl)c2n1CC(F)(F)F [Compound P2]
EC50 (rgRSV224 virus): 100 nM
CC50 at 3 days (in vitro): > 100000 nM

CS(=O)(=O)CCCn1c(Cn2c(=O)n(C3CC3)c3c(Cl)cncc32)cc2cc(Cl)ccc21 [Compound P3]
EC50 (rgRSV224 virus): 19.9 nM
CC50 at 3 days (in vitro): > 100000 nM

Cc1cncc2c1n(C1CC1)c(=O)n2Cc1cc2cc(Cl)ccc2n1CCCS(C)(=O)=O [Compound P4]
EC50 (rgRSV224 virus): 19.9 nM
CC50 at 3 days (in vitro): > 100000 nM

CS(=O)(=O)CCCn1c(Cn2c(=O)n(CC(F)(F)F)c3c(Cl)cncc32)cc2cc(Cl)ccc21 [Compound P5, 7-chloro-3-((5-chloro-1-(3-(methylsulfonyl)propyl)-1H-indol-2-yl)-methyl)-1-(2,2,2-trifluoroethyl)-1H-imidazo[4,5-c]pyridin-2(3H)-one]
EC50 (rgRSV224 virus): 25.1 nM
CC50 at 3 days (in vitro): 31600 nM

CS(=O)(=O)CCCn1c(Cn2c(=O)n(C3CC3)c3c(Cl)cccc32)cc2cc(Cl)ccc21 [Compound P6]
EC50 (rgRSV224 virus): 631 nM
CC50 at 3 days (in vitro): 31600 nM

O=c1n(Cc2cc3cc(Cl)ccc3n2CCCC(F)(F)F)c2cccc(Cl)c2n1CC(F)(F)F [Compound P7, 4-chloro-1-((5-chloro-1-(4,4,4-trifluorobutyl)-1H-indol-2yl)methyl)-3-(2,2,2-trifluoroethyl)-1H-benzo [d]imidazol-2(3H)-one]
CC50 at 3 days (in vitro): > 100000 nM

Cc1cncc2c1n(CC(F)(F)F)c(=O)n2Cc1cc2cc(Cl)ccc2n1CCCS(C)(=O)=O [Compound P8, 3-((5-chloro-1-(3-(methylsulfonyl)propyl)-1H-indol-2-yl)methyl)-7-methyl-1-(2,2,2-trifluoroethyl)-1H-imidazo[4,5-c]pyridin-2(3H)-one]
EC50 (rgRSV224 virus): 100 nM
CC50 at 3 days (in vitro): 50100 nM

CC(C)CCn1c(Cn2c(=O)n(C3CC3)c3c(Cl)cccc32)nc2nc(Cl)ccc21 [Compound P9, 4-chloro-1-((5-chloro-1-isopentyl-1H-imidazo[4,5-b]pyridin-2-yl)-methyl)-3-cyclopropyl-1H-benzo[d]imidazol-2(3H)-one]
EC50 (rgRSV224 virus): 794 nM
CC50 at 3 days (in vitro): > 25000 nM

Cc1cccc2c1n(C1CC1)c(=O)n2Cc1nc2nc(Cl)ccc2n1CCC(C)C [Compound P10, 1-((5-chloro-1-isopentyl-1H-imidazo[4,5-b]pyridin-2-yl)methyl)-3-cyclopropyl-4-methyl-1H-benzo[d]imidazol-2(3H)-one]
EC50 (rgRSV224 virus): 398 nM
CC50 at 3 days (in vitro): > 50000 nM

Cc1cccc2c1n(C1CC1)c(=O)n2Cc1cc2nc(Cl)ccc2n1CCCC(F)(F)F [Compound P11, 1-((5-chloro-1-(4,4,4-trifluorobutyl)-1H-pyrrolo[3,2-b]pyridin-2-yl)-methyl)-3-cyclopropyl-4-methyl-1H-benzo[d]imidazol-2(3H)-one]
EC50 (rgRSV224 virus): 6310 nM
CC50 at 3 days (in vitro): 12600 nM
